From patent US8518903B2, “Use of toll-like receptor-9 agonists” (University of Pittsburgh—of the Commonwealth System of …, priority 2007, dated 2013)

Legend:
[1] = system: enterocytes; test: Phosphorylated p38 and ERK in enterocytes exposed to LPS and CpG (Western blot); type: cell-based
Description: FIG. 6A-C. LPS signaling is attenuated by the TLR9 ligand CpG-DNA in enterocytes. (A) Comparison of phosphorylated p38 versus total p38 in a negative control, in the presence of 50 μg/ml LPS, in the presence of 50 μg/ml LPS and 10 μM CpG, and in the presence of 10 μM CpG. (B) Comparison of phosphorylated ERK versus total ERK in a negative control, in the presence of LPS, in the presence of LPS and CpG, and in the presence of CpG. (C) Bar graph showing the results of A.
A first series of experiments was designed to study the consequences of the TLR4 activator LPS and a CpG TLR9 agonist on the mediators of activated TLR4, p38 and ERK. Throughout this example section, the CpG used was CpG ODN, 5′-[…]-3′ (SEQ ID NO:6) P38 and ERK are both phosphorylated in their activated form. As shown in FIG. 6A-C, the relative levels of phosphorylated p38 and ERK increased when enterocytes were exposed to LPS.

[2] = system: experimental NEC in newborn mice; test: Murine NEC model in NFkB-GFP transgenic mice (histology, mucosal TNF-α RTPCR, NFκB activation); type: in vivo, mouse; conditions: NEC mice
Description: FIG. 27A-G. CpG-ODN-HS and CpG-DNA reduce the development of experimental NEC in vivo in newborn mice. Newborn NEC and control mice were injected with CpG-ODN-HS or CpG-DNA. A. Histology (H&E) of terminal ileum of breast fed mouse. B. Histology (H&E) of terminal ileum of mouse after induction of NEC. C. Histology (H&E) of terminal ileum of mouse treated with CpG-DNA, after which conditions which induced NEC were applied. D. Histology (H&E) of terminal ileum of mouse treated with CpG-ODN-HS, after which conditions which induced NEC were applied. E. Histology (H&E) of terminal ileum of breast fed mouse treated with CpG-ODN-HS. F. Histology (H&E) of terminal ileum of breast fed mouse treated with CpG-DNA. G. Severity of NEC in newborn mice as scored by a blinded pediatric pathologist. *p<0.05 vs. NEC in saline-injected mice.
FIG. 28. CpG-ODN-HS and CpG-DNA reduce the expression of mucosal TNF-α in NEC newborn mice in vivo.
FIG. 29A-D. Confocal microscopy showing the extent of NFkB activation in mice with NEC in the absence or presence of CpG-ODN-HS. CpG-ODN-HS reduces the level of NFkB activation in NEC newborn mice in vivo. The mice express NFkB-GFP, and sections were stained with anti-GFP antibody (red; arrow).
The effect of the TLR9 agonist CpG-ODN 5′ […] 3′ (SEQ ID NO:10; referred to herein as CpG-ODN-HS) on the mediator of activated TLR4, NFκB, was examined in a murine NEC model (previously described, above). The effect of CpG-ODN-HS on inflammation in the NEC murine model was also examined as a measured by TNF-α expression, which is an index of inflammation.
Materials and methods. Phosphorothioated CpG-ODN-HS and oligodeoxynucleotide (ODN) 1826 ([…]) (SEQ ID NO:6; referred to herein as CpG-DNA) were synthesized by the University of Pittsburgh DNA synthesis facility. ODNs were confirmed to be endotoxin-free by Limulus assay. NFkB-GFP antibody was obtained from Santa Cruz and Abcam. The extent of nuclear translocation was determined in an adaptation of the methodology of Ding and colleagues. In brief, a threshold limit was set based upon the emission signal for the nuclear stain DRAQ5, which therefore defined a nuclear region of interest (ROI). To define a corresponding cytoplasmic region of interest, a circular region 12 pixels beyond the nucleus was stenciled upon each cell. The average integrated pixel intensity pertaining to the corresponding NFkB emission within the cytoplasmic and nuclear regions was then determined for more than 200 cells per treatment group in at least four experiments per group, using MetaMorph software version 6.1 (Molecular Devices Corporation, Downingtown, Pa.).
Mucosal TNF-α expression was measured using quantitative real-time PCR (RTPCR). Quantitative real-time PCR in cultured enterocytes and intestinal tissue using the BioRad iCycler (Biorad, Hercules, CA) was performed as in (Leaphart, C. L., J. Cavallo, S. C. Gribar, S. Cetin, J. Li, M. F. Branca, T. D. Dubowski, C. P. Sodhi, and D. J. Hackam. 2007. A Critical Role for TLR4 in the Pathogenesis of Necrotizing Enterocolitis by Modulating Intestinal Injury and Repair. J Immunology 179:4808-4820). Oligonucleotide primer pairs used for RTPCR were as follows: forward: 5′ […] 3′ (SEQ ID NO:14), reverse: 5′ […] 3′ (SEQ ID NO:15); and forward: 5′ […] 3′ (SEQ ID NO:16), reverse: 5′ […] 3′ (SEQ ID NO:17). Gene expression was normalized to β-actin expression. Where indicated, gene expression was assessed on 2.5% agarose gels using ethidium bromide staining. […]

[3] = system: IEC-6 cells; test: TLR4 and TLR9 expression and distribution in enterocytes (Western blot, immunofluorescence); type: cell-based
Excerpt: FIG. 12. TLR4 and TLR9 expression are unchanged by CpG-DNA and LPS in enterocytes. Western blot showing levels of TLR4 and TLR9 (relative to actin) in enterocytes which were either untreated (Ctrl) or treated with LPS, LPS+CpG, or CpG.
FIG. 13A-E. CpG-DNA causes a redistribution of TLR4 into internal structures in IEC-6 cells. Immunofluorescence studies showing TLR4 distribution in IEC-6 cells which were either untreated (A) or treated with (B) LPS; (C) LPS+CpG; or (D) CpG. (E) is a schematic drawing showing redistribution of TLR4 caused by TLR9.
FIG. 14A-D. LPS causes the internalization of TLR9, which is reversed by CpG-DNA. Immunofluoresence studies of IEC-6 cells showing TLR9 distribution in cells which were either (A) untreated; or treated with (B) LPS; (C) LPS+CpG; or (D) CpG.
Further experiments were performed to study the mechanism by which TLR9 suppresses the TLR4 activation.

[4] = system: enterocytes; test: LPS-mediated cytokine (IL-6) release from enterocytes; type: cell-based; conditions: 50 μg/ml LPS + 10 μM CpG
Description: FIG. 8. CpG-DNA reduces LPS-mediated cytokine release from enterocytes. Bar graph showing the level of supernatant IL-6 in enterocytes which were either untreated (“CTRL”) or treated with 50 μg/ml LPS, 50 m/ml LPS+10 μM CpG, or 10 μM CpG.

5′-TCCATGACGTTCCTGACGTT-3′ [CpG-DNA]
relative level of phosphorylated p38 (increase caused by LPS) ([1]; 50 μg/ml LPS + 10 μM CpG vs LPS alone): significantly less | relative level of phosphorylated ERK (increase caused by LPS) ([1]; LPS + CpG vs LPS alone): significantly less | level of expression of mucosal TNF-α in terminal ileum ([2]; RTPCR): reduced | NEC pathology (histology of terminal ileum) ([2]; treated vs untreated): inhibition of the NEC pathology | LPS-caused internalization of TLR9 ([3]; IEC-6 cells, LPS + CpG): reversed | TLR4 distribution ([3]; IEC-6 cells, immunofluorescence): causes a redistribution of TLR4 into internal enterocyte structures | TLR4 and TLR9 expression ([3]; enterocytes treated with CpG-DNA and LPS): unchanged | LPS-mediated cytokine release (supernatant IL-6) [4]: reduces
